Experimental findings from paper PMC8765783, “Identification of the potential active site of the septal peptidoglycan polymerase FtsW” (PLoS Genetics, 2022) are described below.

Common to all, as to assay: fluorescence anisotropy
Common to all, as to type: binding
Details in all cases: 50 mM Hepes pH 7.5, 0.1 M NaCl, 0.005% DDM, 0.2% CHAPS, 21°C, 0.33 μM probe; labelled compound
A general note: Polarisation of emitted light reports the rotation of a fluorescent probe.

Experiment [1] addresses T1, HisFtsW-FtsI(PBP3) complex (FtsW-FtsI/PBP3, "W 3") (Escherichia coli, UniProt P0ABG4).
T1 construct: His-tagged FtsW co-expressed with untagged FtsI/PBP3 from pDML2041 in E. coli C43(DE3); DDM-solubilised membranes, HisTrap, G25 desalting; tag kept; with Peptidoglycan D,D-transpeptidase FtsI
T1 sequence (P0ABG4 1-414): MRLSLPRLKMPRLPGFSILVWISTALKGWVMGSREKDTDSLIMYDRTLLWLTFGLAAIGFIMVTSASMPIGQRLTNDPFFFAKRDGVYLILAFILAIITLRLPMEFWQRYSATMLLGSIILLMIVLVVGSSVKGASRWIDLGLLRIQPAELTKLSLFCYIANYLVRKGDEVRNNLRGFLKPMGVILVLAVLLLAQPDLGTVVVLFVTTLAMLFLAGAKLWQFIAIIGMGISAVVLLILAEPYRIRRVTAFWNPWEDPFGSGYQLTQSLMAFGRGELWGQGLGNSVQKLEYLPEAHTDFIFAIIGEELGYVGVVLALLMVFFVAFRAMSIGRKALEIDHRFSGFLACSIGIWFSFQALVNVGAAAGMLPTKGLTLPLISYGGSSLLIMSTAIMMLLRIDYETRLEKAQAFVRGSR
T1 sequence (P0AD68 1-577 partner): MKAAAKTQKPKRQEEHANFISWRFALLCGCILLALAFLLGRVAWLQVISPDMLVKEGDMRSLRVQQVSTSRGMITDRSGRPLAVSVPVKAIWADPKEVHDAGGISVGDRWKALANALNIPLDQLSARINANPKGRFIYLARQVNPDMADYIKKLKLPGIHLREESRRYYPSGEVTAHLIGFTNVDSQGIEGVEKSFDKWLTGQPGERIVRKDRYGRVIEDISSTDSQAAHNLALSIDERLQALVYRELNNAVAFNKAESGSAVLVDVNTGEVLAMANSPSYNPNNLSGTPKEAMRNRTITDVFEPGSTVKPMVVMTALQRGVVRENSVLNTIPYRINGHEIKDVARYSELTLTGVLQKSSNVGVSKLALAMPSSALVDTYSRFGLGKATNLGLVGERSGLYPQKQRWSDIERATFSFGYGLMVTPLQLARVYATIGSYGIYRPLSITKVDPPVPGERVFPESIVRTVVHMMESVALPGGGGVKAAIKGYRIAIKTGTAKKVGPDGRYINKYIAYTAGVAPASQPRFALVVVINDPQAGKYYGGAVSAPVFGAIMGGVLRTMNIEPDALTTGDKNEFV

For experiment [2], the target named is T2, HisFtsW-FtsI(PBP3) complex (FtsW-FtsI/PBP3, "W 3") (Escherichia coli, UniProt P0ABG4, A135T).
T2 construct: His-tagged FtsW co-expressed with untagged FtsI/PBP3 from pDML2041 in E. coli C43(DE3); DDM-solubilised membranes, HisTrap, G25 desalting; tag kept; with Peptidoglycan D,D-transpeptidase FtsI
T2 sequence (P0ABG4 1-414 A135T): T1 sequence (P0ABG4 1-414)
T2 sequence (P0AD68 1-577 partner): T1 sequence (P0AD68 1-577 partner)
The text has this: (§1) fluorescence anisotropy on HisFtsW-FtsI(PBP3) complex (FtsW-FtsI/PBP3, "W 3")

Experiment [3] has as its target T3, HisFtsW-FtsI(PBP3) complex (FtsW-FtsI/PBP3, "W 3") (Escherichia coli, UniProt P0ABG4, D297A).
T3 construct: His-tagged FtsW co-expressed with untagged FtsI/PBP3 from pDML2041 in E. coli C43(DE3); DDM-solubilised membranes, HisTrap, G25 desalting; tag kept; with Peptidoglycan D,D-transpeptidase FtsI
T3 sequence (P0ABG4 1-414 D297A): T1 sequence (P0ABG4 1-414)
T3 sequence (P0AD68 1-577 partner): T1 sequence (P0AD68 1-577 partner)
From the text: as §1

In experiment [4] the target is T4, HisFtsW-FtsI(PBP3) complex (FtsW-FtsI/PBP3, "W 3") (Escherichia coli, UniProt P0ABG4, G199A).
T4 construct: His-tagged FtsW co-expressed with untagged FtsI/PBP3 from pDML2041 in E. coli C43(DE3); DDM-solubilised membranes, HisTrap, G25 desalting; tag kept; with Peptidoglycan D,D-transpeptidase FtsI
T4 sequence (P0ABG4 1-414 G199A): T1 sequence (P0ABG4 1-414)
T4 sequence (P0AD68 1-577 partner): T1 sequence (P0AD68 1-577 partner)
From the text: as §1

The target of experiment [5] is T5, HisFtsW-FtsI(PBP3) complex (FtsW-FtsI/PBP3, "W 3") (Escherichia coli, UniProt P0ABG4, G371S).
T5 construct: His-tagged FtsW co-expressed with untagged FtsI/PBP3 from pDML2041 in E. coli C43(DE3); DDM-solubilised membranes, HisTrap, G25 desalting; tag kept; with Peptidoglycan D,D-transpeptidase FtsI
T5 sequence (P0ABG4 1-414 G371S): T1 sequence (P0ABG4 1-414)
T5 sequence (P0AD68 1-577 partner): T1 sequence (P0AD68 1-577 partner)
From the text: as §1

The target in experiment [6] is T6, HisFtsW-FtsI(PBP3) complex (FtsW-FtsI/PBP3, "W 3") (Escherichia coli, UniProt P0ABG4, G381D).
T6 construct: His-tagged FtsW co-expressed with untagged FtsI/PBP3 from pDML2041 in E. coli C43(DE3); DDM-solubilised membranes, HisTrap, G25 desalting; tag kept; with Peptidoglycan D,D-transpeptidase FtsI
T6 sequence (P0ABG4 1-414 G381D): T1 sequence (P0ABG4 1-414)
T6 sequence (P0AD68 1-577 partner): T1 sequence (P0AD68 1-577 partner)
From the text: as §1

In experiment [7] the target is T7, HisFtsW-FtsI(PBP3) complex (FtsW-FtsI/PBP3, "W 3") (Escherichia coli, UniProt P0ABG4, P196T).
T7 construct: His-tagged FtsW co-expressed with untagged FtsI/PBP3 from pDML2041 in E. coli C43(DE3); DDM-solubilised membranes, HisTrap, G25 desalting; tag kept; with Peptidoglycan D,D-transpeptidase FtsI
T7 sequence (P0ABG4 1-414 P196T): T1 sequence (P0ABG4 1-414)
T7 sequence (P0AD68 1-577 partner): T1 sequence (P0AD68 1-577 partner)
From the text: as §1

In experiment [8] the target is T8, HisFtsW-FtsI(PBP3) complex (FtsW-FtsI/PBP3, "W 3") (Escherichia coli, UniProt P0ABG4, Q147E).
T8 construct: His-tagged FtsW co-expressed with untagged FtsI/PBP3 from pDML2041 in E. coli C43(DE3); DDM-solubilised membranes, HisTrap, G25 desalting; tag kept; with Peptidoglycan D,D-transpeptidase FtsI
T8 sequence (P0ABG4 1-414 Q147E): T1 sequence (P0ABG4 1-414)
T8 sequence (P0AD68 1-577 partner): T1 sequence (P0AD68 1-577 partner)
From the text: as §1

For experiment [9], the target named is T9, HisFtsW-FtsI(PBP3) complex (FtsW-FtsI/PBP3, "W 3") (Escherichia coli, UniProt P0ABG4, R243L).
T9 construct: His-tagged FtsW co-expressed with untagged FtsI/PBP3 from pDML2041 in E. coli C43(DE3); DDM-solubilised membranes, HisTrap, G25 desalting; tag kept; with Peptidoglycan D,D-transpeptidase FtsI
T9 sequence (P0ABG4 1-414 R243L): T1 sequence (P0ABG4 1-414)
T9 sequence (P0AD68 1-577 partner): T1 sequence (P0AD68 1-577 partner)
From the text: as §1

For experiment [10], the target named is T10, HisFtsW-FtsI(PBP3) complex (FtsW-FtsI/PBP3, "W 3") (Escherichia coli, UniProt P0ABG4, W138A).
T10 construct: His-tagged FtsW co-expressed with untagged FtsI/PBP3 from pDML2041 in E. coli C43(DE3); DDM-solubilised membranes, HisTrap, G25 desalting; tag kept; with Peptidoglycan D,D-transpeptidase FtsI
T10 sequence (P0ABG4 1-414 W138A): T1 sequence (P0ABG4 1-414)
T10 sequence (P0AD68 1-577 partner): T1 sequence (P0AD68 1-577 partner)
From the text: as §1

The target in experiment [11] is T11, HisFtsW-FtsI(PBP3) complex (FtsW-FtsI/PBP3, "W 3") (Escherichia coli, UniProt P0ABG4, Y242H).
T11 construct: His-tagged FtsW co-expressed with untagged FtsI/PBP3 from pDML2041 in E. coli C43(DE3); DDM-solubilised membranes, HisTrap, G25 desalting; tag kept; with Peptidoglycan D,D-transpeptidase FtsI
T11 sequence (P0ABG4 1-414 Y242H): T1 sequence (P0ABG4 1-414)
T11 sequence (P0AD68 1-577 partner): T1 sequence (P0AD68 1-577 partner)
From the text: as §1

Molecules are shown by their SMILES.

Broadly, the Kd is the constant that tells how readily two partners part at equilibrium. The low end stands for tighter binding, the high end for weaker binding. In the case of `CC(=O)N[C@H]1[C@H](O[C@H]2[C@H](O[C@H](C)C(=O)N[C@@H](C)C(=O)N[C@H](CCC(=O)N[C@@H](CCCCNc3ccc([N+](=O)[O-])c4nonc34)C(=O)N[C@H](C)C(=O)N[C@H](C)C(=O)O)C(=O)O)[C@@H](NC(C)=O)[C@@H](OP(=O)(O)OP(=O)(O)OC/C=C(/C)CC/C=C(/C)CC/C=C(/C)CC/C=C(/C)CC/C=C(/C)CC/C=C(/C)CC/C=C(/C)CC/C=C(/C)CC/C=C(\C)CC/C=C(\C)CCC=C(C)C)O[C@@H]2CO)O[C@H](CO)[C@@H](O)[C@@H]1O` [NBD-lipid II], the dissociation constant (Kd) in experiment [1] was found to be 130 nM; in experiment [2], 60 nM; in experiment [3], 90 nM; in experiment [4], 110 nM; in experiment [5], 50 nM; in experiment [6] it was 100 nM. The Kd was found to be 60 nM in [7]; 70 nM in [8]; 70 nM in [9]; 60 nM in [10]; 40 nM in [11].
